The text below walks through data of publication PMC10819651 (Molecules, 2024).

What all share (type): biochemical
The target of experiment [1] is T1, Human monoamine oxidase B (Homo sapiens, UniProt P27338).
T1 construct: purchased Sigma-Aldrich (Milan, Italy)
T1 sequence (P27338 1-520): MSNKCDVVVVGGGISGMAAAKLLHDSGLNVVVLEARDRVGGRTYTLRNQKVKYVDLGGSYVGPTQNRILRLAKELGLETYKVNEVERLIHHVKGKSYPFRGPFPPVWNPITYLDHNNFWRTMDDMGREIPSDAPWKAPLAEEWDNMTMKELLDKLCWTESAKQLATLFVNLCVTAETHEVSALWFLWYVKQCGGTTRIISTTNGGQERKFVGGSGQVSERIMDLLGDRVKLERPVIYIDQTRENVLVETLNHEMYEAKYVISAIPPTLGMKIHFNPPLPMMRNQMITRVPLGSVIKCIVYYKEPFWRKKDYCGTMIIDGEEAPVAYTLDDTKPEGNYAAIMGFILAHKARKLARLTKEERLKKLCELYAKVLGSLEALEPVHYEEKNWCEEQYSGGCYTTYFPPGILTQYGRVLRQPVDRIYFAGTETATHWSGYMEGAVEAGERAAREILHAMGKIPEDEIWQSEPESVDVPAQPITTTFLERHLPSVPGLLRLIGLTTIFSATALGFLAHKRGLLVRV
The experiment in a line: Kinetic analysis of MAO-B inhibition (KM, Vmax, apparent Ki). The conditions noted are these: for Note: type of inhibition approached (MAO-B): for mixed inhibitors; for Inhibition Type (MAO-B): kynuramine 25–150 µM, two fixed inhibitor concentrations; for Ki: apparent Ki, mean ± SE (n). As for the experimental part: (§1) Monoamine oxidase activity was assayed by the fluorimetric method, as previously reported. This method, based on the monoamine oxidase oxidation of its non-selective substrate kynuramine, led to the production of […], which becomes fluorescent in alkaline conditions. In steady-state measurements of MAO activity, the reaction mixture (250 µL), prepared in a 50 mM potassium phosphate buffer, pH 7.1 (buffer A), contained 40 μM kynuramine in the absence or presence of the indicated concentration of the inhibitor. The DMSO concentration carried over by the inhibitor was 0.5% (v/v), and an identical concentration of DMSO was used in the absence of the inhibitor. The reaction started with the addition of 3.75 μg monoamine oxidase A or B and lasted 20 min. The reaction was stopped by adding 150 μL of 2 M NaOH and, after 10 min of incubation at room temperature, 240 μL of water. After centrifugation (10 min at 15,000 rpm), the fluorescence signal was measured on 500 μL of supernatant using a Cary Eclipse Spectrofluorimeter (Agilent Technologies, Milan, Italy) at room temperature (20–25 °C). Excitation and emission wavelengths of 315 and 380 nm, respectively, were employed; slits were set to 10 nm for both the excitation and emission beams.
(§2) The kinetic parameters KM and Vmax for MAO and XO substrates were obtained through kinetic measurements of these activities performed at different substrate concentrations, either in the absence or in the presence of two fixed concentrations of the various inhibitors. […] Each assay was realized as reported above, and the values of the initial velocity (vi) of the reaction were evaluated under the various experimental conditions. The data of vi were nonlinearly fitted according to the Michaelis–Menten equation or analyzed by the Lineweaver–Burk equation in order to derive the kinetic parameters in the absence (KM and Vmax) or in the presence (K’M and V’max) of the inhibitor.
(§3) The inhibition power of the various compounds and their inhibition mechanisms were evaluated. […] However, an apparent inhibition constant (K’i) was calculated at each inhibitor concentration using the equations hereafter reported, depending on the type of inhibition tentatively approached from the experimental data:K’i = V’max × [I]/(Vmax − V’max)(1) K’i = KM × [I]/(K’M − KM)(2) K’i = K’M × [I]/(KM − K’M)(3)
(§4) The K’i values obtained at different inhibitor concentrations were then averaged to obtain a unique value of apparent Ki for each compound.

Experiment [2] concerns the target T2, Human monoamine oxidase A (Homo sapiens, UniProt P21397).
T2 construct: purchased Sigma-Aldrich (Milan, Italy)
T2 sequence (P21397 1-527): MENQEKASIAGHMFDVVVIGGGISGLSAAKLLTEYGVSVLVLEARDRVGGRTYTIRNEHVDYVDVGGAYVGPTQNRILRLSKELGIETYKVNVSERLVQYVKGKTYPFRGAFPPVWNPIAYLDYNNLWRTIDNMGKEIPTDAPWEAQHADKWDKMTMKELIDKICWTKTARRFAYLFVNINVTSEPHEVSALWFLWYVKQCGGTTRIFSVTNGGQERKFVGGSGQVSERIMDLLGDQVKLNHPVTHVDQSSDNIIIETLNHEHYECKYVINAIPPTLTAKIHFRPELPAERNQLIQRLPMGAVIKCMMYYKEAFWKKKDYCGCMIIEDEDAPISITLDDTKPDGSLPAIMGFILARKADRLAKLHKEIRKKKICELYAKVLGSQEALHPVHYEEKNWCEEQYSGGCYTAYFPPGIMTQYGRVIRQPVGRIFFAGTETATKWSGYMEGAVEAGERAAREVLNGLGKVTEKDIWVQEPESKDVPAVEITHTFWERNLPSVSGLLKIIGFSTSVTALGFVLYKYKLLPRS
Briefly: Kinetic analysis of MAO-A inhibition (KM, Vmax, apparent Ki). The conditions noted are these: for Note: type of inhibition approached (MAO-A): for mixed inhibitors; for Inhibition Type (MAO-A): kynuramine 25–150 µM, two fixed inhibitor concentrations; for Ki: apparent Ki, mean ± SE (n). As for the experimental part:
as §1, §2, §3, §4

Experiment [3] deals with T3, bovine milk xanthine oxidase (Bos taurus, UniProt P80457).
T3 construct: bovine milk xanthine oxidase; purchased Sigma-Aldrich (Milan, Italy); host or cells: bovine milk
T3 sequence (P80457 whole entry): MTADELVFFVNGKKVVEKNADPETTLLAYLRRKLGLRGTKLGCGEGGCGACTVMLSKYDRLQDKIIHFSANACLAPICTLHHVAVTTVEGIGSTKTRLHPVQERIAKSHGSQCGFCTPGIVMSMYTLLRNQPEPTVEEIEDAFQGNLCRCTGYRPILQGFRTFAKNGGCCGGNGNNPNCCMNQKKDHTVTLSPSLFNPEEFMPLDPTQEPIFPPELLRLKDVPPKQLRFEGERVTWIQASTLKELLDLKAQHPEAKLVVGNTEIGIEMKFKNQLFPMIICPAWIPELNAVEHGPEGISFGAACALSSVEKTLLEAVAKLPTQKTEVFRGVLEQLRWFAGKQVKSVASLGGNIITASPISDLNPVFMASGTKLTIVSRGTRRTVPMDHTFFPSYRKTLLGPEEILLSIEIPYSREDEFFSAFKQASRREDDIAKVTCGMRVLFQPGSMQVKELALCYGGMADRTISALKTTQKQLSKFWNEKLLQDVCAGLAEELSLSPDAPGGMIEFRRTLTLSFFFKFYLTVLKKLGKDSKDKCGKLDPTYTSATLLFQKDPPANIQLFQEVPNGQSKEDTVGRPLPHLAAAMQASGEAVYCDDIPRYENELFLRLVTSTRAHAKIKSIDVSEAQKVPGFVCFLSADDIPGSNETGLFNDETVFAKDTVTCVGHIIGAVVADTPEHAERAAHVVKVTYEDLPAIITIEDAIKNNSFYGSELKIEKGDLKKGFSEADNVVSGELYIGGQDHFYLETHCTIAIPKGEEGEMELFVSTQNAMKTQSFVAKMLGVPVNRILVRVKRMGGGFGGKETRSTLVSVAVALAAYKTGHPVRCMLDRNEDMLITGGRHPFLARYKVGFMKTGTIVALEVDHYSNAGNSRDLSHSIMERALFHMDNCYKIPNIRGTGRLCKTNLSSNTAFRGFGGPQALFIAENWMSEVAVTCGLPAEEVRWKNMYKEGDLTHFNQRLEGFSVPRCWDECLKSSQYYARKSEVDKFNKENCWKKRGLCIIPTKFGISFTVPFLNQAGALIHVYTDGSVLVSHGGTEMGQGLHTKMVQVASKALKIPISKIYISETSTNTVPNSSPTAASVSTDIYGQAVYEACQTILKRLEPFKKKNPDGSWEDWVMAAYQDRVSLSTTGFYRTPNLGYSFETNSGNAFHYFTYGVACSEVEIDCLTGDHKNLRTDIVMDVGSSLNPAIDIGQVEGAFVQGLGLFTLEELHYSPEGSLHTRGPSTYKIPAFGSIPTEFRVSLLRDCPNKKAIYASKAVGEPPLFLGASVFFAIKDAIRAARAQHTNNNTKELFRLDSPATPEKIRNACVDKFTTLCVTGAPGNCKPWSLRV
Briefly: Steady-state xanthine oxidase activity, spectrophotometric assay. The conditions noted are these: for IC50: read-out: IC50 XO inhibition. As for the experimental part: Xanthine oxidase activity was assayed through a spectrophotometric method, essentially as previously reported. […] The DMSO concentration carried over by the inhibitor was 1% (v/v), and an identical concentration of DMSO was used in the absence of the inhibitor. The reaction started with the addition of XO and was followed kinetically for up to 30 s. The initial rate of uric acid formation was expressed as ΔE/min. The effect of each inhibitor in the XO assay was evaluated, and the data were treated as previously indicated for the MAO assay, including the extrapolation of the IC50 values.

In experiment [4] the target is T2, Human monoamine oxidase A. The experiment in a line: Steady-state MAO-A activity, fluorimetric kynuramine assay. The conditions noted are these: 40 μM kynuramine, 20 min, pH 7.1; mean ± SD (n); from semilogarithmic plot. On the procedure:
as §1, with “The reaction started with the addition of 3.75 μg monoamine oxidase A or B and lasted 20 min.” left out, “°C).” for “°C). Excitation and emission wavelengths of 315 and 380 nm, respectively, were employed; slits were set to 10 nm for both the excitation and emission beams.”

The target of experiment [5] is T1, Human monoamine oxidase B. The experiment in a line: Steady-state MAO-B activity, fluorimetric kynuramine assay. The conditions noted are these: 40 μM kynuramine, 20 min, pH 7.1; mean ± SD (n); from semilogarithmic plot. On the procedure:
as §1

The mark [6] stands for this setting: read-out: Ki, Calculated from KM Increase (MAO-B).
The mark [7] stands for this setting: 75 μM xanthine, pH 7.8, 25 °C, mean ± SE (n), extrapolated from semilogarithmic plot.
Where [8] appears, read: read-out: Ki, Calculated from KM Increase (MAO-A).

“Also recorded” adds a separate entry of the source. Read-outs that look alike come from different tables or passages of the source.

Regarding `COc1cc2c(cc1OC)C(=O)C(CC1CCN(Cc3ccccc3)CC1)C2` (stereo not shown) [Donepezil, donepezil, reference compound], in experiment [1], the “Note: type of inhibition approached (MAO-B)” value was “approaching competitive” and the “Inhibition Type (MAO-B)” value is listed as “mixed”. Besides, in experiment [2], the “Note: type of inhibition approached (MAO-A)” value is listed as “approaching noncompetitive” and the “Inhibition Type (MAO-A)” value is “mixed”.

Consider `O=C(OCCc1ccc(O)c(O)c1)C1CCN(Cc2ccccc2)CC1` [HT1, 3,4-dihydroxyphenetyl 1-benzylpiperidine-4-carboxylate], for which the results for the Ki in experiment [1] (setting [6]) and in experiment [2] (setting [8]) were 163 ± 28 µM and 39.7 ± 14.3 µM, respectively. In experiment [1], the “Inhibition Type (MAO-B)” value is listed as “competitive”. Further, the IC50 in experiment [3] (setting [7]) is 454 ± 22 µM; in experiment [4], 54.1 ± 6.9 µM; in experiment [5], 125 ± 28 µM. In addition, the “Note: type of inhibition approached (MAO-A)” value in experiment [2] is on record as “approaching competitive”. Further, the “Inhibition Type (MAO-A)” value in experiment [2] is reported as “mixed”.

For `CC(=O)Oc1ccc(CCOC(=O)C2CCN(Cc3ccccc3)CC2)cc1OC(C)=O` [HT1a], the Ki in experiment [1] (setting [6]) is 37.9 ± 13.1 µM. Also, in experiment [1], the “Note: type of inhibition approached (MAO-B)” value is “approaching competitive” and the “Inhibition Type (MAO-B)” value was “mixed”. In addition, the “IC50 XO inhibition” value in experiment [3] (setting [7]) is “no inhibition”. Also, the “Inhibition of XO activity (in words)” value in experiment [3] (steady-state, concentration series) is reported as “almost ineffective; also recorded: essentially no inhibition”. In addition, in experiment [2] (setting [8]), the Ki was 36.5 ± 13.2 µM. In addition, in experiment [2], the “Note: type of inhibition approached (MAO-A)” value was “approaching competitive” and the “Inhibition Type (MAO-A)” value is reported as “mixed”. In experiment [4], this compound showed an IC50 of 50.8 ± 11 µM. For the same compound, half-maximal inhibition in experiment [5] (IC50) required 85 ± 33 µM.

For the compound `COc1cc(CCOC(=O)C2CCN(Cc3ccccc3)CC2)ccc1O` [HT3, 4-hydroxy-3-methoxyphenethyl 1-benzylpiperidine-4-carboxylate], the Ki was 115 ± 50 µM in experiment [1] (setting [6]) and 7.6 ± 3.7 µM in experiment [2] (setting [8]). Besides, in experiment [1], the “Note: type of inhibition approached (MAO-B)” value is reported as “approaching competitive”. Besides, the “Inhibition Type (MAO-B)” value in experiment [1] was “mixed”. Further, the values for the IC50 in experiment [3] (setting [7]), in experiment [4] and in experiment [5] were 361 ± 1 µM, 23.4 ± 6.3 µM and 171 ± 44 µM, respectively. Also, in experiment [2], the “Note: type of inhibition approached (MAO-A)” value was “approaching competitive”. The “Inhibition Type (MAO-A)” value in experiment [2] is reported as “mixed”.

For the compound `COc1cc(CCOC(=O)C2CCN(Cc3ccccc3)CC2)ccc1OC(C)=O` [HT3a], the Ki in experiment [1] (setting [6]) is 190 ± 37 µM; in experiment [2] (uncompetitive, read-out: Ki, average value from Vmax or KM decrease (MAO-A)) it was 80.5 ± 30.4 µM. The “Note: type of inhibition approached (MAO-B)” value in experiment [1] is listed as “approaching competitive”. Further, the “Inhibition Type (MAO-B)” value in experiment [1] was “mixed”. Besides, the IC50 is 282 ± 37 µM in experiment [3] (setting [7]), 44.3 ± 14.4 µM in experiment [4] and 174 ± 80 µM in experiment [5]. In addition, the “Inhibition Type (MAO-A)” value in experiment [2] was “uncompetitive”.

On to `O=C(OCCc1ccc(O)cc1)C1CCN(Cc2ccccc2)CC1` [HT4, 4-hydroxyphenethyl 1-benzylpiperidine-4-carboxylate], for which the “Inhibition Type (MAO-B)” value in experiment [1] is recorded as “uncompetitive”. The Ki was 128 ± 45 µM in experiment [1] (uncompetitive, read-out: Ki, average value from Vmax or KM decrease (MAO-B)) and 6.1 ± 1.6 µM in experiment [2] (setting [8]). For the same compound, the IC50 in experiment [3] (setting [7]) is 605 ± 35 µM; in experiment [4], 14.3 ± 2.2 µM; in experiment [5], 106 ± 22 µM. The “Note: type of inhibition approached (MAO-A)” value in experiment [2] is “approaching competitive”. The “Inhibition Type (MAO-A)” value in experiment [2] is on record as “mixed”.

As to `CC(=O)Oc1ccc(CCOC(=O)C2CCN(Cc3ccccc3)CC2)cc1` [HT4a], the values for the Ki in experiment [1] (setting [6]) and in experiment [2] (setting [8]) were 20.7 ± 2.8 µM and 15.6 ± 4.2 µM, respectively. The “Inhibition Type (MAO-B)” value in experiment [1] was “competitive”. In addition, the values for the IC50 in experiment [3] (setting [7]), in experiment [4] and in experiment [5] were 438 ± 6 µM, 57 ± 18.2 µM and 86 ± 24 µM, respectively. Besides, in experiment [2], the “Note: type of inhibition approached (MAO-A)” value is listed as “approaching competitive”. In addition, the “Inhibition Type (MAO-A)” value in experiment [2] was “mixed”.
